Assay results reported in patent US9416138B2, “Benzyl sulfonamide compounds useful as MoGAT-2 inhibitors” (Eli Lilly and Company, priority 2012, dated 2016).
Structures can show the parent of a compound that is named as a salt.

Columns and labels:
[1] = target: T1, human MoGAT-2 (Homo sapiens, UniProt Q3SYC2); experiment: Inhibitory Activity in MOGAT-2 Cell Assay (Caco-2 cells stably transfected with human MoGAT-2, HDG substrate, LC-MS); type: cell-based; set-up: expressed in transfected cells; conditions: Caco-2 cells expressing human MoGAT-2; 4 hours treatment with HDG/DOPC; read-out: C50 nM (Std Dev.; n*)
T1 sequence (Q3SYC2 whole entry): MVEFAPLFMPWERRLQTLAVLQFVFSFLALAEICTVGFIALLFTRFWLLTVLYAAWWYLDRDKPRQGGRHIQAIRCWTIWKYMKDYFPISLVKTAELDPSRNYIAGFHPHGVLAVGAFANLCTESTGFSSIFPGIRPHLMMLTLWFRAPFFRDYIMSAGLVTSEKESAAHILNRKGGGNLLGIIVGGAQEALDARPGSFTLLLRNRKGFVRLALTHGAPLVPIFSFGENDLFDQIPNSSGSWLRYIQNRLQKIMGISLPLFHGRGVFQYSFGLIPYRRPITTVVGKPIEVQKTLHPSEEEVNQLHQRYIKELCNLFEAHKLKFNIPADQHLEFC
Description: The inhibitory activity of compounds against human MoGAT-2 in a cell environment is evaluated in this assay. Caco-2 is a human colon carcinoma cell line and is often used as a model for intestinal epithelial cells. […] The substrate is delivered to cells using as a mixture with DOPC in the form of sonicated vesicles. Seed the Caco2 cells onto 100 mm dishes to be 80% confluent after 24 hours in complete media (3/1 DMEM: F12+10% FBS+20 mM HEPES+gentamicin). Transfect the cells with hMoGAT-2 plasmid (MOGAT-2-pCDNA3.1-Hygro) using Lipofectamine 2000 (Invitrogen). After a 6 hour exposure to the transfection mixture, wash the cells three times in PBS and then add media. Incubate the cells for an additional 18 hours incubation, trypsinize the cells and serially dilute them into 100 mm dishes. Add complete media+400 μg/ml hygromycin and incubate until clones appear. Isolate and transfer the clones into 24 well dishes and grow to confluency. Prepare the RNAs from these clones using a Qiagen RNAeasy kit. Perform Taqman analysis using an ABI inventoried assay (HS00228262) on a 7900 Sequence Detection System (ABI). Analyze the lysates from these clones by Western blot analysis using a goat polyclonal antibody (Santa Cruz, SC-32392 to confirm human MoGAT-2 expression of a 38 kD protein corresponding to MoGAT-2. […] Add 20 ml of buffer (150 mM Tris-Cl pH 7.4, 250 mM sucrose, 1 mM EDTA) to the dried HDG/DOPC mixture while sonicating until the solution becomes clear. Plate the Caco2 cells into a poly-D-lysine coated 96-well plate (the “Cell Plate”) at 37° C., 5% CO2 overnight. […] Trypsinize the cells with 50 μl of trypsin solution and add 50 μl of PBS. Immediately freeze the cells on dry ice and store at -20° C. for LC-MS analysis. Extract the cells with chloroform/methanol as follows: transfer the cells to a 2 ml plate; wash the cell plate with 200 μL methanol and then transfer the methanol wash to the 2 ml plate; wash the cell plate again with 200 μL PBS and transfer the PBS wash to the 2 ml plate. Add chloroform (400 μL) with an internal standard (19.52 ng/mL) DAG (15:0,15:0 (Sigma)), D5-TAG (39.03 ng/mL) CDN (16,16,16) to the 2 mL Plate. Turn the sealed 2 mL Plate up and down (10×), then vortex and spin. Remove 400 μL of the lower layer from the 2 mL plate and add to the wells of another plate the “Final Plate”. Add CHCl3:MeOH (400 μL 2:1) to the 2 mL Plate. Again turn the sealed 2 mL Plate up and down (10×), vortex and spin. Remove 220 μL of the lower layer from the 2 mL Plate and add to the Final Plate. Dry the Final Plate and reconstitute with […] of IPA. […] Monitor the channels to collect data for the D5 C16 TAG internal standard as well as the ether TAG, and […] and […] natural TAGs. Solvent A is 80/20 H2O/Methanol with 20 μM ammonium acetate. Solvent B is 50/50 IPA/THF with 20 μM ammonium acetate. Flow rate is 0.4 mL/min Wash solvents are H2O/MeOH and DCM. Using Xcalibur software extract the areas of the peaks of interest, and export the data to Excel which uses the following formula: (area of ether TAG/area of […] natural TAG)/Area of IS. This ratio effectively accounts for variance of cell number in each well.

[2] = target: T1, human MoGAT-2; experiment: MOGAT-2 Inhibitory Assay (SF9 cell lysate, 14C-oleoyl-CoA, Microscint E extraction); type: biochemical; set-up: made in house; host or cells: insect SF9 cells (cell lysate supernatant); conditions: human MoGAT-2 expressed in SF9 cells, cell extract; 90 minutes at room temperature
Description: The in vitro inhibitory activity of compounds against human MoGAT-2 is evaluated in this assay. MoGAT-2 transfers an oleoyl group to monooleoyl-glycerol (“MAG”) from oleoyl-CoA to form dioleoyl-glycerol (“DAG”) in the intestinal triglyceride resynthesis pathway. The assay takes advantage of Microscint E extraction, which extracts hydrophobic molecules selectively over hydrophilic ones to separate the ^14C-oleoyl-CoA from ^14C-DAG.
Genetically engineered insect SF9 cells express human MoGAT-2. Prepare the cell lysate in 20 mM of NaCl with protease inhibitor (Roche Cat#11873580001). Homogenize the SF9 cells expressing human MoGAT-2 at 15,000 rpm for 20×2 seconds (PT-3100 Polytrone). Centrifuge the homogenate at 1000 g for 10 minutes at 4° C. Collect the supernatant into a separate tube for protein quantification and activity testing. Purify the glycerol monooleate substrate (Spectrum Chemical, CAS#25496-72-4) chromatographically. Prepare the monoacylglyerol (MAG) substrate in phospholipid vescicles (dioleoyl phosphatidylcholine “DOPC”). Prepare the MAG/DOPC vesicles at 20 mM concentration of total lipids (MAG and DOPC). Prepare different molar ratios of MAG to total lipids for either compound screening (8.9%) or compound kinetic studies (2.6-40%). Mix the appropriate amount of purified MAG and DOPC (Avanti Polar Lipids #850375C) in chloroform in a glass tube. […]

[3] = test system: oil bolus-induced excursion of triglycerides in circulation; experiment: Dog Oil Bolus Model; type: in vivo, dog (male beagles); conditions: 10 mg/kg dose, olive oil bolus, plasma net TAG AUC, statistically significant (p<0.05)
Source text: Inhibiting MoGAT-2 found in the small intestine may be useful for treating hypertriglyceridemia caused by excessive fat intake Inhibition of MoGAT-2 disrupts resynthesis of triglycerides, which reduces secretion of triglycerides from the intestine. Therefore, MoGAT-2 inhibition interferes with a specific process that leads to eventual secretion of triglycerides into the intestine for eventual circulation through the body. To assess the ability of one or more of the exemplified compounds to inhibit MoGAT-2 induced TAG secretion into the intestine as measured in the blood system, the following protocol can be followed:
Twenty one male beagles are enrolled for each study, each dog selected to have a body weight between 9-13 kg. […]
The analyte is the [M+NH4]+ ion of TAG 18:1 18:1 18:1, which has a mass of 902.8 m/z; the internal standard is D5 TAG 16:0 16:0 16:0, which has a mass of 829.8 m/z. […] The percent inhibition of plasma triglyceride is calculated as follows: the (oil bolus group mean of net TAG AUC−oil bolus group mean of net TAG AUC with compound treatment/oil bolus group mean of net TAG AUC)*100. […] The ability of exemplified compounds of the present invention to inhibit MoGAT-2 activity and reduce TAG absorption in vivo can be further evaluated according to this assay.

Compound: C[C@@H](NS(C)(=O)=O)c1ccc(CNCC2COc3ccccc3N2)cc1 (single isomer, unassigned; isomer 2) [Example 14]
- IC50 [1]: 479 nM

Compound: C[C@@H](NS(C)(=O)=O)c1ccc(CNC2CCN(c3ccccc3)C2)cc1 (single isomer, unassigned; isomer 2) [Example 19]
- IC50 [1]: 105 nM

Compound: C[C@@H](NS(C)(=O)=O)c1ccc(CNCC2COC(c3ccccc3)CO2)cc1 (single isomer, unassigned; isomer 2) [Example 29]
- IC50 [1]: 294 nM

Compound: CS(=O)(=O)N[C@@H](c1ccc(CNC[C@H]2COc3cccnc3O2)cc1)C(F)(F)F [Example 1, N-{(1S)-1-[4-({[(3S)-2,3-Dihydro[1,4]dioxino[2,3-b]pyridin-3-ylmethyl]amino}methyl)phenyl]-2,2,2-trifluoroethyl}methanesulfonamide hydrochloride]
- IC50 [2]: 2.28 nM
- IC50 [1]: 3.8 nM

Compound: C[C@@H](NS(C)(=O)=O)c1ccc(CNC[C@H]2COc3cccnc3O2)cc1.Cl [Example 2, N-{(1R)-1-[4-({[(3S)-2,3-Dihydro[1,4]dioxino[2,3-b]pyridin-3-ylmethyl]amino}methyl)phenyl]ethyl}methanesulfonamide hydrochloride]
- reduction in TAG 18.1_18.1_18.1 [3]: 67%
- reduction in total triglycerides [3]: 77%

Compound: CS(=O)(=O)N[C@@H](c1ccc(CNCCN2CCc3ccccc3C2=O)cc1)C(F)(F)F [Example 31, N-{(1S)-2,2,2-Trifluoro-1-[4-({[2-(1-oxo-3,4-dihydroisoquinolin-2(1H)-yl)ethyl]amino}methyl)phenyl]ethyl}methanesulfonamide hydrochloride]
- IC50 [1]: 266 nM
